Measured values taken from patent US11827639B2, “TDO2 and IDO1 inhibitors” (Genentech, Inc., priority 2017, dated 2023).
Where two headings read alike, the source gives them in different places.

Tests used:
TDO2 [1] = biological target: T1, TDO2 (Homo sapiens, UniProt P48775); test: cell-based
IDO1 [2] = biological target: T2, IDO1 (Homo sapiens, UniProt P14902); test: cell-based
IDO1 [3] = biological target: T2, IDO1
TDO2 [4] = biological target: T1, TDO2; test: TDO2 cell assay (NFK GreenScreen) in SW48 cells; conditions: read-out: TDO2 cell Fluor EC50, NFK GreenScreen fluorescence

T1 sequence (P48775 whole entry): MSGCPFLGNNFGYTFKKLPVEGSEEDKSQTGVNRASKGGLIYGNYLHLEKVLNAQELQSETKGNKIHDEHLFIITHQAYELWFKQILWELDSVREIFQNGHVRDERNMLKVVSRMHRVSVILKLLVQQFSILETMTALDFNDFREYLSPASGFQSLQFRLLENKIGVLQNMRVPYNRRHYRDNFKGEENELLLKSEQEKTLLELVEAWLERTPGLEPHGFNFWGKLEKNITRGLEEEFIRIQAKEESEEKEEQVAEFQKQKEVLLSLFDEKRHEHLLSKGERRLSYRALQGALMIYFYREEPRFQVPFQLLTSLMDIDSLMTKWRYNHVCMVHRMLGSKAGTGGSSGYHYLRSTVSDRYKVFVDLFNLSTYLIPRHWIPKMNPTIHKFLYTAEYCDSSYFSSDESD
T2 sequence (P14902 whole entry): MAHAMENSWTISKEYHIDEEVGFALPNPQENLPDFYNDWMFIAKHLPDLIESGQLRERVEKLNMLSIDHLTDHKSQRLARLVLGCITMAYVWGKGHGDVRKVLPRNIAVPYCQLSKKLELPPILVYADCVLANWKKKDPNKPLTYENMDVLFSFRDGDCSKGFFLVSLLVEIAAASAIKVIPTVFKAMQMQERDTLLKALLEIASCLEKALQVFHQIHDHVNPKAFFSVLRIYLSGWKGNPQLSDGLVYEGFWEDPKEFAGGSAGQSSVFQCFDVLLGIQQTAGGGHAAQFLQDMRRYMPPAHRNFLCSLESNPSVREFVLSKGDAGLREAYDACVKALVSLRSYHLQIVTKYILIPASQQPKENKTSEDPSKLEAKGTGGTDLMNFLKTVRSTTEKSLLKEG

| SMILES | EC50 (TDO2 [1]) [nM] | EC50 (IDO1 [2]) [nM] | EC50 (IDO1 [3]) [nM] | EC50 (TDO2 [4]) [nM] |
| --- | --- | --- | --- | --- |
| OCc1cc(F)cc(C2c3ccccc3-c3cncn32)c1 (single isomer, unassigned) [Example 09a] | 690 | 21000 |  |  |
| OCc1cc(F)cc(C2c3ccccc3-c3cncn32)c1 (single isomer, unassigned) [Example 09b] | 96 | 3300 |  |  |
| CC(O)c1cccc(C2c3ccccc3-c3cncn32)c1 (single isomer, unassigned) [Example 10c] | 590 | 22000 |  |  |
| Cn1cc(C2c3ccccc3-c3cncn32)cn1 (single isomer, unassigned) [Example 79b] | 530 | 8500 |  |  |
| Cn1cc(C2c3ccccc3-c3cncn32)ccc1=O (single isomer, unassigned) [Example 84b] | 360 | 12000 |  |  |
| OCc1cccc([C@H]2c3ccccc3-c3cncn32)c1 [Example 01b, (S)-(3-(5H-imidazo[5,1-a]isoindol-5-yl)phenyl)methanol] | 310 | 8500 |  |  |
| C1=C(C2c3ccccc3-c3cncn32)CCn2cccc21 (centres unmarked) [Example 04, 5-(5,6-dihydroindolizin-7-yl)-5H-imidazo[5,1-a]isoindole] | 2300 | 12000 |  |  |
| C[C@H](O)c1cccc([C@H]2c3ccccc3-c3cncn32)c1 [Example 10a, (S)-1-(3-((S)-5H-imidazo[5,1-a]isoindol-5-yl)phenyl)ethan-1-ol] | 320 | 5000 |  |  |
| CNS(=O)(=O)c1cccc(C2c3ccccc3-c3cncn32)c1 (centres unmarked) [Example 12, 3-(5H-imidazo[5,1-a]isoindol-5-yl)-N-methylbenzenesulfonamide] | 1800 | 11000 |  |  |
| N#Cc1cccc(C2c3ccccc3-c3cncn32)c1 (centres unmarked) [Example 17, 3-(5H-imidazo[5,1-a]isoindol-5-yl)benzonitrile] | 2000 | 16000 |  |  |
| Cc1cccc(C2c3ccccc3-c3cncn32)c1 (centres unmarked) [Example 21, 5-(m-tolyl)-5H-imidazo[5,1-a]isoindole] | 360 | 9700 |  |  |
| c1ccc2c(c1)-c1cncn1C2C1CCC2(CC1)OCCO2 (centres unmarked) [Example 26, 5-(1,4-dioxaspiro[4.5]decan-8-yl)-5H-imidazo[5,1-a]isoindole] | 3200 | 9700 |  |  |
| Fc1cccc(C2c3ccccc3-c3cncn32)c1 (centres unmarked) [Example 30, 5-(3-fluorophenyl)-5H-imidazo[5,1-a]isoindole] | 340 | 5000 |  |  |
| Fc1cc(Cl)cc(C2c3ccccc3-c3cncn32)c1 (centres unmarked) [Example 40, 5-(3-chloro-5-fluorophenyl)-5H-imidazo[5,1-a]isoindole] | 290 | 3800 |  |  |
| Fc1cc(F)cc(C2c3ccccc3-c3cncn32)c1 (centres unmarked) [Example 45, 5-(3,5-difluorophenyl)-5H-imidazo[5,1-a]isoindole] | 140 | 1900 |  |  |
| c1ccc2c(c1)-c1cncn1C2C1CCc2ccncc2C1 (centres unmarked) [Example 46, 5-(5,6,7,8-tetrahydroisoquinolin-7-yl)-5H-imidazo[5,1-a]isoindole] | 27 | 2000 |  |  |
| NC(=O)c1cc(F)cc(C2c3ccccc3-c3cncn32)c1 (centres unmarked) [Example 51, 3-fluoro-5-(5H-imidazo[5,1-a]isoindol-5-yl)benzamide] | 120 | 3100 |  |  |
| CC(C)CC1c2ccccc2-c2cncn21 (centres unmarked) [Example 53, 5-isobutyl-5H-imidazo[5,1-a]isoindole] | 870 | 4400 |  |  |
| Cn1ncc2cc(C3c4ccccc4-c4cncn43)ccc21 (centres unmarked) [Example 55b] | 780 | 8100 |  |  |
| CS(=O)(=O)c1ccc(C2c3ccccc3-c3cncn32)cc1 (centres unmarked) [Example 56, 5-(4-(methylsulfonyl)phenyl)-5H-imidazo[5,1-a]isoindole] | 640 | 4600 |  |  |
| CC(C)(C)OC(=O)N1CCC2(CC1)CC(C1c3ccccc3-c3cncn31)C2 (centres unmarked) [Example 57, tert-butyl 2-(5H-imidazo[5,1-a]isoindol-5-yl)-7-azaspiro[3.5]nonane-7-carboxylate] | 1500 | 910 |  |  |
| Fc1cc(C2c3ccccc3-c3cncn32)cc(F)c1F (centres unmarked) [Example 65, 5-(3,4,5-trifluorophenyl)-5H-imidazo[5,1-a]isoindole] | 210 | 1900 |  |  |
| CC(C)(C)OC(=O)N1CC2(CCC(C3c4ccccc4-c4cncn43)CC2)C1 (centres unmarked) [Example 76, tert-butyl 7-(5H-imidazo[5,1-a]isoindol-5-yl)-2-azaspiro[3.5]nonane-2-carboxylate] | 1800 | 140 |  |  |
| O=S(=O)(N1CCC1)N1CCC(C2c3ccc(F)cc3-c3cncn32)CC1 (centres unmarked) [Example 88, 5-(1-(azetidin-1-ylsulfonyl)piperidin-4-yl)-8-fluoro-5H-imidazo[5,1-a]isoindole] | 900 | 5300 |  |  |
| O=S(=O)(NC1CC1)N1CCC(C2c3ccc(F)cc3-c3cncn32)CC1 (centres unmarked) [Example 89, N-cyclopropyl-4-(8-fluoro-5H-imidazo[5,1-a]isoindol-5-yl)piperidine-1-sulfonamide] | 220 | 5900 |  |  |

The next lines start with the values.

| EC50 (TDO2 [1]) [nM] | EC50 (IDO1 [2]) [nM] | EC50 (IDO1 [3]) [nM] | EC50 (TDO2 [4]) [nM] | SMILES |
| --- | --- | --- | --- | --- |
| 270 | 1500 |  |  | NC(=O)C1CCC(C2c3ccccc3-c3cncn32)CC1 (single isomer, unassigned) [Example 60b] |
| 10000 | 17000 |  |  | NC(=O)C1CCC(C2c3ccccc3-c3cncn32)CC1 (single isomer, unassigned) [Example 60d] |
| 730 | 3000 |  |  | CS(=O)(=O)N1CC2(CC(C3c4ccccc4-c4cncn43)C2)C1 (single isomer, unassigned) [Example 72a] |
| 64 | 4800 |  |  | NS(=O)(=O)N1CCC(C2c3ccc(F)cc3-c3cncn32)CC1 (single isomer, unassigned) [Example 74b] |
| 10000 | 18000 |  |  | CS(=O)(=O)N1CC2(CCC(C3c4ccccc4-c4cncn43)CC2)C1 (single isomer, unassigned) [Example 78a] |
| 2500 | 1400 |  |  | CS(=O)(=O)N1CC2(CCC(C3c4ccccc4-c4cncn43)CC2)C1 (single isomer, unassigned) [Example 78b] |
| 770 | 2300 |  |  | CS(=O)(=O)C1CCC(C2c3ccccc3-c3cncn32)CC1 (single isomer, unassigned) [Example 83b] |
| 810 | 15000 |  |  | c1ccc2c(c1)-c1cncn1C2C1CCOCC1 (centres unmarked) [Example 14, 5-(tetrahydro-2H-pyran-4-yl)-5H-imidazo[5,1-a]isoindole] |
| 150 | 930 |  |  | CS(=O)(=O)N1CCC(C2c3ccccc3-c3cncn32)CC1 (centres unmarked) [Example 16, 5-(1-(methylsulfonyl)piperidin-4-yl)-5H-imidazo[5,1-a]isoindole] |
| 9600 | 19000 |  |  | O=C(C1CC1)N1CCC(C2c3ccccc3-c3cncn32)CC1 (centres unmarked) [Example 18, (4-(5H-imidazo[5,1-a]isoindol-5-yl)piperidin-1-yl)(cyclopropyl)methanone] |
| 17000 | 10000 |  |  | c1ccc2c(c1)-c1cncn1[C@@H]2C1CCCCC1 [Example 19a] |
|  |  | 416 | 33 | c1ccc2c(c1)-c1cncn1[C@H]2C1CCCCC1 [Example 19b] |
| 990 | 2400 |  |  | c1ccc2c(c1)-c1cncn1C2C1CCC1 (centres unmarked) [Example 34, 5-cyclobutyl-5H-imidazo[5,1-a]isoindole] |
| 590 | 11000 |  |  | c1ccc2c(c1)-c1cncn1C2C1CC2(COC2)C1 (centres unmarked) [Example 39, 5-(2-oxaspiro[3.3]heptan-6-yl)-5H-imidazo[5,1-a]isoindole] |
| 240 | 1500 |  |  | CS(=O)(=O)N1CCC2(CC1)CC(C1c3ccccc3-c3cncn31)C2 (centres unmarked) [Example 59, 5-(7-(methylsulfonyl)-7-azaspiro[3.5]nonan-2-yl)-5H-imidazo[5,1-a]isoindole] |
| 410 | 4400 |  |  | NS(=O)(=O)N1CCCC(C2c3ccccc3-c3cncn32)C1 (centres unmarked) [Example 64, 3-(5H-imidazo[5,1-a]isoindol-5-yl)piperidine-1-sulfonamide] |
| 1100 | 20000 |  |  | NS(=O)(=O)N1CC2(CC(C3c4ccccc4-c4cncn43)C2)C1 (centres unmarked) [Example 66, 6-(5H-imidazo[5,1-a]isoindol-5-yl)-2-azaspiro[3.3]heptane-2-sulfonamide] |
| 210 | 900 |  |  | CC1(C)CC(C2c3ccccc3-c3cncn32)C1 (centres unmarked) [Example 67, 5-(3,3-dimethylcyclobutyl)-5H-imidazo[5,1-a]isoindole] |
| 180 | 860 |  |  | CC1(O)CCC(C2c3ccccc3-c3cncn32)CC1 (centres unmarked) [Example 70, 4-(5H-imidazo[5,1-a]isoindol-5-yl)-1-methylcyclohexan-1-ol] |
| 560 | 14000 |  |  | CS(=O)(=O)N1CCCC(C2c3ccccc3-c3cncn32)C1 (centres unmarked) [Example 71, 5-(1-(methylsulfonyl)piperidin-3-yl)-5H-imidazo[5,1-a]isoindole] |
| 2100 | 7600 |  |  | CS(=O)(=O)N1CC2CC(C3c4ccccc4-c4cncn43)CC2C1 (centres unmarked) [Example 75a, 5-(2-(methylsulfonyl)octahydrocyclopenta[c]pyrrol-5-yl)-5H-imidazo[5,1-a]isoindole] |
| 770 | 8600 |  |  | CS(=O)(=O)N1CC2C(C1)C2C1c2ccccc2-c2cncn21 (centres unmarked) [Example 93, 5-(3-(methylsulfonyl)-3-azabicyclo[3.1.0]hexan-6-yl)-5H-imidazo[5,1-a]isoindole] |
| 420 | 7100 |  |  | O=S1(=O)NCC2CC(C3c4ccccc4-c4cncn43)CCN21 (centres unmarked) [Example 94, 5-(5H-imidazo[5,1-a]isoindol-5-yl)hexahydro-2H-[1,2,5]thiadiazolo[2,3-a]pyridine 1,1-dioxide] |
| 390 | 9000 |  |  | NS(=O)(=O)N1CC2C(C1)C2C1c2ccccc2-c2cncn21 (centres unmarked) [Example 96, 6-(5H-imidazo[5,1-a]isoindol-5-yl)-3-azabicyclo[3.1.0]hexane-3-sulfonamide] |
